Experimental data taken from ChEMBL document CHEMBL5154672, “Design and synthesis of HDAC inhibitors to enhance the therapeutic effect of diffuse large B-cell lymphoma by improving metabolic stability and pharmacokinetic characteristics” (Eur J Med Chem, 2022).
One block for each compound: values may come before it.

Key:
[1] = molecular target: Histone deacetylase 1 (Homo sapiens, UniProt Q13547); experiment: Inhibition of HDAC1 (unknown origin) using RHKK(Ac)AMC fluorogenic peptide as substrate preincubated for 10 mins followed by substrate addition for 1 hr in presence of ATP by fluoroscence based assay
Chain of Histone deacetylase 1 (Q13547 whole entry): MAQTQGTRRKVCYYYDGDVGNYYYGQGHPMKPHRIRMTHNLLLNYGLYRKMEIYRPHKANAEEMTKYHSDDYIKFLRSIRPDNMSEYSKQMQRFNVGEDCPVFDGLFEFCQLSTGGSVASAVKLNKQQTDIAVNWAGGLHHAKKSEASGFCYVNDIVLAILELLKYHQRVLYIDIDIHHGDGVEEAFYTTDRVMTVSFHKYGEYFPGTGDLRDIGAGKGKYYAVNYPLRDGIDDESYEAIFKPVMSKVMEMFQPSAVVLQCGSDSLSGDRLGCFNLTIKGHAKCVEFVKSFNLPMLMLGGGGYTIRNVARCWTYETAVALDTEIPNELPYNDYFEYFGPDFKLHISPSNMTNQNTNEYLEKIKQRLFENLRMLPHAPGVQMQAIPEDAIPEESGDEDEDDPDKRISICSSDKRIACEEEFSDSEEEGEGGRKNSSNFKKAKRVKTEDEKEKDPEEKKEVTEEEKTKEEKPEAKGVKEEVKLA

[2] = Metabolic stability in human liver microsomes assessed as intrinsic clearance measured for 75 to 130 mins by LC-MS/MS analysis; type: ADME, Microsome; settings: time 75-130 min; for microsomal CLint: liver microsomes, read-out: CLH
[3] = Metabolic stability in human liver microsomes assessed as half life measured for 75 to 130 mins by LC-MS/MS analysis; type: ADME, Microsome; settings: time 75-130 min; for half-life: liver microsomes; for t1/2: microsomes
[4] = tested on: RS4-11; experiment: Antiproliferative activity against human RS4-11 cells incubated for 72 hrs by luminescence assay; type: functional, cell-based; settings: RS4-11, 72 h
[5] = tested on: Rec1; experiment: Antiproliferative activity against human REC1 cells incubated for 72 hrs by luminescence assay; type: functional, cell-based; settings: Rec1, 72 h
[6] = tested on: NCI-H460; experiment: Antiproliferative activity against human NCI-H460 cells incubated for 72 hrs by luminescence assay; type: functional, cell-based; settings: NCI-H460, 72 h
[7] = tested on: TMD8; experiment: Antiproliferative activity against human TMD8 cells assessed as remaining cell activity at 2 uM incubated for 72 hrs by luminescence assay relative to control; type: functional
[8] = tested on: COLO-678; experiment: Antiproliferative activity against human COLO-678 cells incubated for 72 hrs by luminescence assay; type: functional, cell-based; settings: COLO-678, 72 h
[9] = tested on: A549; experiment: Antiproliferative activity against human A549 cells incubated for 72 hrs by luminescence assay; type: functional, cell-based; settings: A549, 72 h
[10] = tested on: TMD8; experiment: Antiproliferative activity against human TMD8 cells incubated for 72 hrs by luminescence assay; type: functional, cell-based; settings: TMD8, 72 h
[11] = tested on: CCRF-CEM; experiment: Antiproliferative activity against human CCRF-CEM cells incubated for 72 hrs by luminescence assay; type: functional, cell-based
[12] = tested on: MDA-MB-231; experiment: Antiproliferative activity against human MDA-MB-231 cells incubated for 72 hrs by luminescence assay; type: functional, cell-based; settings: MDA-MB-231, 72 h
[13] = tested on: HuT78; experiment: Antiproliferative activity against human HuT78 cells incubated for 72 hrs by luminescence assay; type: functional, cell-based; settings: HuT78, 72 h
[14] = tested on: HT-29; experiment: Antiproliferative activity against human HT-29 cells incubated for 72 hrs by luminescence assay; type: functional, cell-based; settings: HT-29, 72 h
[15] = tested on: A549; experiment: Antiproliferative activity against human A549 cells assessed as remaining cell activity at 2 uM incubated for 72 hrs by luminescence assay relative to control; type: functional
[16] = Metabolic stability in mouse liver microsomes assessed as half life measured for 75 to 130 mins by LC-MS/MS analysis; type: ADME, Microsome; settings: time 75-130 min
[17] = tested on: DOHH-2; experiment: Antiproliferative activity against human DOHH-2 cells incubated for 72 hrs by luminescence assay; type: functional, cell-based; settings: DOHH-2, 72 h
[18] = tested on: SK-OV-3; experiment: Antiproliferative activity against human SK-OV-3 cells incubated for 72 hrs by luminescence assay; type: functional, cell-based; settings: SK-OV-3, 72 h
[19] = tested on: CWR22R; experiment: Antiproliferative activity against human 22Rv1 cells incubated for 72 hrs by luminescence assay; type: functional, cell-based; settings: 22Rv1, 72 h
[20] = tested on: 786-0; experiment: Antiproliferative activity against human 786-O cells incubated for 72 hrs by luminescence assay; type: functional, cell-based; settings: 786-0, 72 h
[21] = AUC (0 to infinity) in ICR mouse at 2 mg/kg, iv measured upto 24 hrs by LC-MS/MS analysis; type: ADME, organism-based; parameters: time < 24 hrs, dose 2 mg/kg, route iv; settings: in vivo
[22] = Oral bioavailability in ICR mouse at 25 mg/kg measured upto 24 hrs by LC-MS/MS analysis; type: ADME, organism-based; settings: in vivo
[23] = tested on: SU-DHL-2; experiment: Antiproliferative activity against human SUDHL2 cells incubated for 72 hrs by luminescence assay; type: functional, cell-based; settings: SU-DHL-2, 72 h
[24] = tested on: HCT-116; experiment: Antiproliferative activity against human HCT-116 cells assessed as remaining cell activity at 2 uM incubated for 72 hrs by luminescence assay relative to control; type: functional
[25] = AUC (0 to infinity) in ICR mouse at 25 mg/kg, po measured upto 24 hrs by LC-MS/MS analysis; type: ADME, organism-based; parameters: time < 24 hrs, dose 25 mg/kg, route po; settings: in vivo
[26] = tested on: NCI-H441; experiment: Antiproliferative activity against human NCI-H441 cells incubated for 72 hrs by luminescence assay; type: functional, cell-based; settings: NCI-H441, 72 h
[27] = tested on: MDA-MB-231; experiment: Antiproliferative activity against human MDA-MB-231 cells assessed as remaining cell activity at 2 uM incubated for 72 hrs by luminescence assay relative to control; type: functional
[28] = MRT in ICR mouse at 25 mg/kg, po measured upto 24 hrs by LC-MS/MS analysis; type: ADME, organism-based; settings: in vivo
[29] = Half life in ICR mouse at 25 mg/kg, po measured upto 24 hrs by LC-MS/MS analysis; type: ADME, organism-based; settings: in vivo
[30] = tested on: MOLT-4; experiment: Antiproliferative activity against human MOLT-4 cells incubated for 72 hrs by luminescence assay; type: functional, cell-based; settings: MOLT-4, 72 h
[31] = Cmax in ICR mouse at 25 mg/kg, po measured upto 24 hrs by LC-MS/MS analysis; type: ADME, organism-based; parameters: time < 24 hrs, dose 25 mg/kg, route po; settings: in vivo

Compound: Nc1cc(F)ccc1NC(=O)c1ccc(CN2CCC/C(=C\c3ccco3)C2=O)cc1
IC50 [1]: 1.2 µM

Compound: Nc1ccccc1NC(=O)c1ccc(CN2CCC/C(=C\c3ccc4ccccc4c3)C2=O)cc1
IC50 [1]: 0.693 µM

Compound: Nc1cc(F)ccc1NC(=O)c1ccc(CN2CCC/C(=C\c3cccnc3)C2=O)cc1
IC50 [1]: 2.34 µM

Compound: Nc1ccccc1NC(=O)c1ccc(CN2CCC/C(=C\c3ccccc3)C2=O)cc1
microsomal CLint [2]: 11 µL/min/mg | half-life [3]: 2.1 h | IC50 [1]: 0.195 µM

Compound: Nc1cc(F)ccc1NC(=O)c1ccc(CNC(=O)/C=C/c2cccnc2)cc1 [TUCIDINOSTAT]
IC50 [4]: 0.6 µM | Intrinsic clearance in human liver microsomes [2]: 1.7 µL/min/mg | IC50 [5]: 1.01 µM | IC50 [6]: 2.34 µM | Activity [7]: 5.96% | IC50 [8]: > 10 µM | IC50 [9]: 2.79 µM | IC50 [10]: 0.48 µM | IC50 [11]: 0.83 µM | IC50 [12]: 9.52 µM | IC50 [13]: 2.42 µM | IC50 [14]: 6.04 µM | t1/2 [3]: 6.27 h | Activity [15]: 96.6% | half-life [16]: 1.3 h | IC50 [17]: 0.53 µM | IC50 [18]: 8.46 µM | IC50 [19]: 1.08 µM | IC50 [20]: 0.63 µM | AUC(0-inf) [21]: 1.35 µg·h/mL | bioavailability [22]: 20.8% | IC50 [23]: 0.56 µM | Activity [24]: 102.26% | AUC(0-inf) [25]: 3.52 µg·h/mL | IC50 [26]: 2.62 µM | Activity [27]: 69.91% | MRT [28]: 4.2 h | half-life [29]: 4 h | IC50 [30]: 0.75 µM | Cmax [31]: 1.22 µg/mL

Compound: Nc1ccccc1NC(=O)c1ccc(CN2CCC/C(=C\c3ccncc3)C2=O)cc1
microsomal CLint [2]: 2.96 µL/min/mg | Activity [7]: 26.34% | half-life [3]: 7.78 h | Activity [15]: 98.64% | IC50 [1]: 0.27 µM | Activity [24]: 66.57% | Activity [27]: 77.05%

Compound: Nc1cc(F)ccc1NC(=O)c1ccc(CN2CC/C(=C\c3ccccc3)C2=O)cc1
microsomal CLint [2]: 11.3 µL/min/mg | half-life [3]: 2.1 h | IC50 [1]: 0.424 µM

Compound: Nc1cc(F)ccc1NC(=O)c1ccc(CN2CCC/C(=C\c3ccc4ccccc4c3)C2=O)cc1
IC50 [1]: 1.2 µM

Compound: Nc1ccccc1NC(=O)c1ccc(CN2CCC/C(=C\c3cccnc3)C2=O)cc1
microsomal CLint [2]: 5.02 µL/min/mg | Activity [7]: 23.83% | half-life [3]: 4.6 h | Activity [15]: 72.41% | IC50 [1]: 0.219 µM | Activity [24]: 57.19% | Activity [27]: 58.3%

Compound: Nc1ccccc1NC(=O)c1ccc(CN2CC/C(=C\c3ccccn3)C2=O)cc1
Activity [7]: 15.5% | Activity [15]: 74.98% | IC50 [1]: 0.082 µM | Activity [24]: 56.41% | Activity [27]: 60.99%

Compound: Nc1cc(F)ccc1NC(=O)c1ccc(CN2CC/C(=C\c3ccccn3)C2=O)cc1
Intrinsic clearance in human liver microsomes [2]: 10.2 µL/min/mg | Activity [7]: 29.75% | t1/2 [3]: 15.6 h | Activity [15]: 93.24% | IC50 [1]: 0.866 µM | Activity [24]: 121.48% | Activity [27]: 83.37%

Compound: Nc1ccccc1NC(=O)c1ccc(CN2CCC/C(=C\c3ccco3)C2=O)cc1
microsomal CLint [2]: 4.45 µL/min/mg | Activity [7]: 5.48% | half-life [3]: 5.18 h | Activity [15]: 61.8% | IC50 [1]: 0.303 µM | Activity [24]: 44.43% | Activity [27]: 53.88%

Compound: Nc1ccccc1NC(=O)c1ccc(CN2CCC/C(=C\c3ccccc3Cl)C2=O)cc1
microsomal CLint [2]: 9.3 µL/min/mg | half-life [3]: 2.48 h | IC50 [1]: 0.396 µM

Compound: Nc1ccccc1NC(=O)c1ccc(CN2CCC/C(=C\c3ccc(Cl)c(C(F)(F)F)c3)C2=O)cc1
IC50 [1]: 1.49 µM

Compound: Nc1cc(F)ccc1NC(=O)c1ccc(CN2CCC/C(=C\c3ccccn3)C2=O)cc1
IC50 [1]: 1.35 µM

Results, then the compound that gave them:

IC50 [1]: 2.45 µM
Compound: Cc1ccccc1/C=C1\CCCN(Cc2ccc(C(=O)Nc3ccc(F)cc3N)cc2)C1=O

IC50 [1]: 0.617 µM
Compound: Nc1cc(F)ccc1NC(=O)c1ccc(CN2CCC/C(=C\c3ccc(Cl)cc3)C2=O)cc1

IC50 [1]: 0.572 µM
Compound: Nc1ccccc1NC(=O)c1ccc(CN2CCC/C(=C\c3ccc(Cl)c(F)c3)C2=O)cc1

IC50 [1]: 1.09 µM
Compound: Nc1cc(F)ccc1NC(=O)c1ccc(CN2CCC/C(=C\c3ccccc3Cl)C2=O)cc1

IC50 [1]: > 10 µM
Compound: Nc1cc(Br)ccc1NC(=O)c1ccc(CN2CCC/C(=C\c3ccc(Cl)cc3)C2=O)cc1

microsomal CLint [2]: 9.57 µL/min/mg | half-life [3]: 2.42 h | IC50 [1]: 0.487 µM
Compound: Nc1ccccc1NC(=O)c1ccc(CN2CCC/C(=C\c3ccc(Cl)cc3)C2=O)cc1

IC50 [1]: 2.21 µM
Compound: Nc1cc(F)ccc1NC(=O)c1ccc(CN2CCC/C(=C\c3ccccc3)C2=O)cc1

IC50 [1]: 1.96 µM
Compound: Nc1cc(F)ccc1NC(=O)c1ccc(CN2CCC/C(=C\c3ccc(Br)cc3)C2=O)cc1

IC50 [1]: 0.906 µM
Compound: COc1ccc(/C=C2\CCCN(Cc3ccc(C(=O)Nc4ccc(F)cc4N)cc3)C2=O)cc1

IC50 [1]: 0.794 µM
Compound: Cc1ccc(/C=C2\CCCN(Cc3ccc(C(=O)Nc4ccc(F)cc4N)cc3)C2=O)cc1

IC50 [1]: > 10 µM
Compound: Cc1ccc(NC(=O)c2ccc(CN3CCC/C(=C\c4ccc(Cl)cc4)C3=O)cc2)c(N)c1

IC50 [1]: 1.94 µM
Compound: Nc1cc(F)ccc1NC(=O)c1ccc(CN2CCC/C(=C\c3cccc(Cl)c3)C2=O)cc1

IC50 [1]: 0.928 µM
Compound: Cc1cccc(/C=C2\CCCN(Cc3ccc(C(=O)Nc4ccc(F)cc4N)cc3)C2=O)c1

IC50 [1]: 2.51 µM
Compound: Nc1cc(F)ccc1NC(=O)c1ccc(CN2CCC/C(=C\c3ccncc3)C2=O)cc1

IC50 [1]: 0.636 µM
Compound: Nc1ccccc1NC(=O)c1ccc(CN2CCC/C(=C\c3cccc(Cl)c3)C2=O)cc1

IC50 [1]: 2.63 µM
Compound: Nc1cc(F)ccc1NC(=O)c1ccc(CN2CCC/C(=C\c3ccc(F)cc3)C2=O)cc1
